# Results from patent publication US20140127231A1, “p38 MAPK Pathway Inhibitors as Female-Specific Therapeutics” (UNIVERSITY OF VERMONT, priority 2012, published 2014).
# “Also recorded” adds a separate entry of the source.
# Experiments:
# Assay type in all cases: in vivo, C57BL/6J (B6) mice
# [1] = system: experimental autoimmune encephalomyelitis (EAE); assay: Active EAE, 2×MOG35-55/CFA protocol, clinical course (Example 3); settings: 5 mg/kg/day i.p. daily from day of immunization; for EAE disease course: 5 mg/kg/day
# Protocol: Female (FIG. 15A) and male (FIG. 15B) B6 mice were immunized using the 2×MOG35-55/CFA protocol, followed by daily injections of SB203580 or carrier. Data represent 2 independent experiments, pooled. Data were analyzed as indicated in Materials and Methods. […] For individual time points, * ≦0.05; ** ≦0.01, *** ≦0.001, **** ≦0.0001. Numbers in parentheses indicate the total number of animals studied.
# EAE was induced essentially as described previously (Noubade R, et al., J Clin Invest. 2007 November; 117(11):3507-18). Briefly, mice were injected s.c. with an emulsion containing 100 μg of MOG35-55 peptide ([…]; SEQ ID NO: 1) (Anaspec, USA) and complete Freund's adjuvant (CFA) (Sigma-Aldrich, St. Louis, Mo.) supplemented with 200 μg of Mycobacterium tuberculosis H37Ra (Difco Laboratories, Detroit, Mich.) in the posterior right and left flanks. One week later all mice were similarly injected at two sites on the right and left flank anterior of the initial injection sites (2×MOG35-55/CFA). Alternatively, mice were immunized with 200 μg of MOG35-55 in CFA, followed by i.v. administration of 200 ng pertussis toxin (List Biological) (1×MOG35-55/CFA/PTX). In some experiments (as indicated), mice received 5 mg/kg/day of SB203580 dihydrochloride (Tocris, Ellisville, Mo.) by i.p. injection in a total volume of 200 μl or an equal volume of carrier daily starting on the day of immunization. Mice were scored daily starting at day 10 post-injection as previously described (Noubade R, et al., J Clin Invest. 2007 November; 117(11):3507-18). Passive EAE was induced as follows. […]
# All statistical analyses were performed using GraphPad Prism 6 software (GraphPad Software Inc, San Diego, Calif.). The significance of differences in cytokine production and flow cytometry data were determined using 2-way ANOVA. The significance of differences observed in clinical course of EAE was determined by 2-way ANOVA and post-hoc analysis using Fisher's LSD test for individual time points (significance indicated by “*” above each time point). […] EAE data from replicate experiments were analyzed by heterogeneity testing. […]
# [2] = system: Draining lymph node (DLN) cells; assay: Draining lymph node cells of treated EAE mice restimulated with MOG35-55, cytokine ELISA; settings: DLN cells collected D20, restimulated with MOG35-55 for 3 days
# Description: (§1) Female B6 mice were immunized for EAE as described for FIG. 1 and treated daily with carrier or SB. On D30 post-immunization, CNS (brain and spinal cord) cells were harvested and analyzed by intracellular staining and flow cytometry. Relative percentages (out of CD4+TCRβ+ population) of IL-17+, IFN-γ+, or IL-17+ IFN-γ+ cells (FIG. 2A), and percentages of CD4+TCRβ+ cells (out of CD45+ cells) (FIG. 2B). DLN cells were collected on D20 and restimulated with MOG35-55 for 3 days. Production of IFN-γ+(FIG. 2C) or IL-17 (FIG. 2D) was assessed by ELISA.
# EAE was induced in female C57BL/6J mice as described previously (Noubade et al., 2007, J Clin Invest., 117(11):3507-3518). […]
# (§2) To examine the mechanism of EAE prevention by SB, the TH1 and TH17 effector subsets were analyzed in treated female mice. […] On D30 post-immunization, CNS (brain and spinal cord) cells were harvested and analyzed by intracellular staining and flow cytometry. […] Draining lymph node (DLN) cells were collected on D20 and restimulated with MOG35-55 for 3 days, and production of IFN-γ and IL-17 was assessed by ELISA.
# [3] = system: TH17 and TH1 cells in CNS-infiltrating cells; assay: CNS-infiltrating cells of treated EAE mice, intracellular cytokine staining and flow cytometry; settings: female B6 mice treated daily, D30 post-immunization
# Description: as §1
# EAE was induced in female C57BL/6J mice as described previously (Noubade et al., 2007, J Clin Invest., 117(11):3507-3518). Mice were injected subcutaneously with an emulsion containing 200 μg of MOG35-55 peptide ([…] (SEQ ID NO: 1) and complete Freund adjuvant (CFA; Sigma-Aldrich) supplemented with 200 μg of Mycobacterium tuberculosis H37RA (Difco Laboratories) in the posterior right and left flank; 1 week later, all mice were similarly injected at 2 sites on the right and left flank anterior of the initial injection sites (2×MOG35-55+CFA). Mice received 5 mg/kg/d SB203580 dihydrochloride (Tocris) by IP injection in a total volume of 200 μL or an equal volume of carrier every day from the day of immunization.
# Animals were perfused with saline and brains and spinal cords removed. A single-cell suspension was obtained and passed through a 70-μm strainer. Mononuclear cells were obtained by Percoll gradient (37%/70%) centrifugation and collected from the interphase. Cells were washed and stimulated for 4 hours with PMA/ionomycin in the presence of brefeldin A (Golgi Plug; BD Biosciences). […]
# as §2
compound,measurement,setting,value
C[S+]([O-])c1ccc(-c2nc(-c3ccncc3)c(-c3ccc(F)cc3)[nH]2)cc1 (centres unmarked) [SB203580],EAE disease course,[1]; female B6 mice,robustly ameliorated; also recorded: significant difference in EAE course
same,EAE onset,[1]; male B6 mice,accelerated
same,EAE disease course,[1]; male B6 mice,showed no therapeutic efficacy; also recorded: augmented; also recorded: did not reduce EAE
same,IFN-γ production (ELISA),[2],did not decrease
same,IL-17 production (ELISA),[2],specifically inhibited IL-17 production
same,IFN-γ production by TH1 cells,[3]; CNS cells,did not suppress IFN-γ production
same,IL-17 production by TH17 cells,"[3]; CNS cells, listed as SB",inhibits IL-17 production by TH17 cells; also recorded: specifically inhibited IL-17 production; also recorded: only partially inhibits IL-17 production
same,Percentage or number of infiltrating CD4+ T cells in the CNS,[3],did not decrease the percentage or number of infiltrating CD4+ T cells
